System: BLM-induced pulmonary fibrosis
Experiment: Bleomycin-induced lung fibrosis mouse model
Format: in vivo
Conditions: 14 days, Nintedanib 60 mg/kg/day, WRG-28 5 mg/kg/day, Av 5 mg/kg/day
Source text: A Bleomycin (BLM)-induced lung fibrosis mouse model was used, and the timelines of operation and drug delivery are depicted in FIG. 11A. […] The hydroxyproline content, serving as a marker of collagen deposition, was extracted from the right lobe and analyzed; the results are shown in FIG. 11C. FIG. 11D depicts histological analysis derived from the left lobe, quantifying the fibrotic area through staining with Masson's Trichrome and Picrosirius red, respectively.
8-to-10-week-old male WT (C57BL/6) mice received intratracheal instillation of bleomycin (bleocin; Nippon Kayaku) at the dose of 3 mg/kg diluted in PBS or PBS only (sham). To study fibrosis, lung samples were collected on day 21 for further analysis.
Lung function was assessed using the flexi Vent system (Scireq, Montreal, QC, Canada). Mice were tracheostomized and ventilated at a rate of 150 breaths/min, tidal volume of 10 ml/kg, and a positive end-expiratory pressure (PEEP) of 2-3 cmH2O. A deep inflation perturbation was used to estimate the inspiratory capacity (IC). Pressure-Volume loops were generated by constant increasing pressure, followed by regular decreasing pressure. Other lung function parameters like resistance, compliance, and elastance were measured by using SnapShot-150.
Levels of hydroxyproline in lung tissues were measured using the Hydroxyproline Colorimetric Assay kit (BioVision, Milpitas, CA, USA). Briefly, 10 mg of frozen right middle lobes homogenized in 100 μL of hydrochloric acid (HCl, 12 N), and hydrolyzed at 120° C. for 3 h. Then, 10 μL of individual samples were used to quantify the absorbance at 560 nm. Hydroxyproline content was presented in μg per lobe.
Mouse left lungs were fixed overnight in 4% paraformaldehyde (PFA), embedded in paraffin, and sectioned in 5 μm thickness for picrosirius red (Abcam, Cambridge, UK) and Masson's trichrome staining (Sigma Aldrich, MO, USA). Measurement of fibrotic area was quantified using ImageJ software (NIH, http://rsbweb.nih.gov/ij/).
The efficacy of WRG-28 and Av in treating pulmonary fibrosis was examined in vivo using a BLM-induced pulmonary fibrosis mouse model for evaluation. 50 μL of Bleomycin (BLM, 3 mg/kg) or PBS were introduced by intratracheal instillation on day 0 to induce fibrosis or serve as the control group, respectively. This was followed by the administration of various compounds for 14 days (Nintedanib: 60 mg/kg/day, WRG-28:5 mg/kg/day, Av: 5 mg/kg/day). Lung function evaluation was conducted on day 21 (FIG. 11A). Nintedanib, an FDA-approved drug for idiopathic pulmonary fibrosis (IPF) treatment, was used as the positive control. The results of the lung function evaluation are depicted in FIG. 11B. […] The degree of these changes can be reversed through treatment with Nintedanib, WRG-28 or Av. […] Histological analysis was conducted through staining techniques to quantify the fibrotic area.

CCNS(=O)(=O)c1ccc(COc2ccc3nc4ccc(=O)cc-4oc3c2)cc1 [WRG-28]
BLM-induced changes in lung function (capacity, compliance, resistance, elastance) (day 21): reversed
fibrotic area (Masson's trichrome and Picrosirius Red staining) (left lobe): effectively reduces
hydroxyproline content (degree of fibrosis) (right lobe): inhibits the progression of fibrosis

— patent publication US20250339443A1, “METHOD FOR TREATING OR PREVENTING CALCIUM RELEASE-ACTIVATED CALCIUM CHANNEL OR DISCOIDIN DOMAIN RECEPTOR 2 RELATED DISORDERS OR CONDITIONS” (LumiSTAR Biotechnology, Inc., priority 2023, published 2025)
